Experimental data taken from EP4722219A1 (Gan & Lee Pharmaceuticals Co., Ltd., priority 2023, dated 2024).

Experiments:
Type in all cases: cell-based
[1] = tested on: T-47D cells; assay: Inhibition of cell proliferation in T-47D cells (CCK-8); details: 6 days treatment, CCK-8 cell viability
How it was run: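 T-47D cells (3,000/well) in RPMI-1640 with 10% FBS were exposed to a concentration range of PROTAC compounds for 6 days at 37 °C, 5% CO2. Viability read by CCK-8; IC50 fitted from inhibition rate.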

[2] = tested on: MCF-7 cells; assay: Inhibition of cell proliferation in MCF-7 cells (CCK-8); details: MCF-7 cell proliferation, 6 days treatment
How it was run: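 MCF-7 cells, 800 per well in DMEM plus 10% FBS, exposed to graded PROTAC concentrations for 6 days at 37 °C, 5% CO2. Viability by CCK-8; IC50 fitted from inhibition rates.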

[3] = target: T1, ERα (Homo sapiens, UniProt P03372); assay: ERα degradation in T-47D cells (Western blot); details: 4 hours
T1 sequence (P03372 1-595): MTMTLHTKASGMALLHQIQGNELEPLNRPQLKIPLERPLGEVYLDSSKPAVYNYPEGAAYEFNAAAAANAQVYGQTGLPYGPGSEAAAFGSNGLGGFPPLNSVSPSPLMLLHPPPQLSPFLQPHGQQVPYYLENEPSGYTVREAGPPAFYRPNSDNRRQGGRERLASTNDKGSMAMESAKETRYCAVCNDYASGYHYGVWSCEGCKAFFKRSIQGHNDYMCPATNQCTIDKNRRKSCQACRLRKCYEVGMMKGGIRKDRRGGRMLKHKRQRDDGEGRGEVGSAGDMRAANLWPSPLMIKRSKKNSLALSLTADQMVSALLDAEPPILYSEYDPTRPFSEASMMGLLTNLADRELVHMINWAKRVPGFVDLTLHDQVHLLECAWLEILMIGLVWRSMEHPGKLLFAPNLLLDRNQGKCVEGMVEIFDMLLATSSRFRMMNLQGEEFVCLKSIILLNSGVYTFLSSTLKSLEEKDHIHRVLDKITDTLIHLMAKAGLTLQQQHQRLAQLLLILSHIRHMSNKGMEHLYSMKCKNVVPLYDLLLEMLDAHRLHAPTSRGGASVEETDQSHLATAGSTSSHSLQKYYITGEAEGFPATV
Method: (§1) Western blotting: The total protein concentration in the collected cell lysate supernatant was determined using the BCA protein concentration assay kit (enhanced) (P0009, Beyotime). Based on the total protein concentration determined by BCA, the protein concentration was adjusted to 1 µg/µL using RIPA lysis buffer and 5× SDS-PAGE protein loading buffer (MB01015, GenScript). The protein was denatured in a 95°C water bath for 5 minutes. After denaturation, the condensed water on the tube wall was collected by centrifugation and used as the loading sample. 20µL of the loading sample (20 µg of total protein) was added to the sample well of a 12% precast gel (M00669, GenScript). Electrophoresis was performed at 100 V for 20 minutes, followed by switching to 150 V for 40 minutes. After electrophoresis, the proteins from the SDS-PAGE gel were transferred to a PVDF membrane at a constant voltage of 100 V for 60 minutes. After transfer, the PVDF membrane corresponding to the ERα protein and internal reference protein was cut and incubated in 1× QµickBlock blocking buffer (P0252, Beyotime) for 30 minutes at room temperature on a shaker. After blocking, the ERα primary antibody (1:1000, 8644S, CST) was added and incubated overnight at 4°C on a shaker. The PVDF membrane was washed three times with 1× TBST buffer for 5 minutes each. Rabbit IgG (H+L) secondary antibody (1:7500, SA5-35571, Invitrogen) was added and incubated for 1 hour at room temperature on a shaker. The membrane was then washed again three times with 1× TBST buffer for 5 minutes each. Finally, the membrane was imaged using a dual-color infrared laser imaging system (Odyssey DLx, LICOR). Protein maps were analyzed for grayscale value using Image Studio Lite software. The grayscale correction value for each sample was calculated using the formula: grayscale correction value = grayscale value of the target protein / grayscale value of the corresponding internal reference. Then the grayscale correction values of the compound group and the control group were compared to calculate the degradation rate of the compound. Table 4 Degradation rate of ERα by PROTAC compounds of the present invention and positive control in MCF-7 cells (%)
Test Example 5 Degradation of ERα by the PROTAC compounds disclosed in the present invention in T-47D cells
T-47D (ATCC) cells were cultured in PRMI-1640 medium (30-2001, ATCC) containing 10% FBS (10099141C, Gibco) at 37°C and 5% CO2 until they entered the logarithmic growth phase. T-47D cells were seeded at a density of 3×10^5 cells/well in a 6-well plate and incubated at 37°C, 5% CO2 for 24 hours. After cell attachment, 1 µL of compound dimethyl sulfoxide solution (final concentration 0.15-1000 nM) was added and incubated for another 4 hours at 37°C, 5% CO2 incubator. After 4 hours, the culture medium was discarded, and each well was washed once with 1 mL of pre-chilled 1× DPBS. The cells were then lysed with 50 µL of RIPA lysis buffer (P0013B, Beyotime) and 1× protease inhibitor cocktail (P1005, Beyotime). After incubation on ice for 20 minutes, the cells were centrifuged at 14,000 g at 4°C for 30 minutes. The supernatant was carefully collected and analyzed for ERα protein levels by immunoblotting. Table 5 Degradation rate of ERα by PROTAC compounds of the present invention and positive control sample in T-47D cells (%)

[4] = target: T1, ERα; assay: ERα degradation in MCF-7 cells (Western blot); parameters: host or cells: MCF-7; details: 4 hours
Method: Test Example 4 Effect of PROTAC Compounds Disclosed in the Present Invention on ERα Degradation in MCF-7 Cells
MCF-7 (ATCC) cells were cultured in DMEM medium (11995-065, Gibco) containing 10% FBS (10099141C, Gibco) at 37°C and 5% CO2 until they entered the logarithmic growth phase. MCF-7 cells were plated at a density of 3×10^5 cells/well in a 6-well plate and incubated at 37°C, 5% CO2 for 24 hours. After cell attachment, 1µL of compound in dimethyl sulfoxide (final concentration 0.15-1000nM) was added and incubated for another 4 hours at 37°C, 5% CO2 incubator. After 4 hours, the culture medium was discarded, and each well was washed once with 1 mL of pre-chilled 1× DPBS. The cells were then lysed with 50 µL of RIPA lysis buffer (P0013B, Beyotime) and 1× protease inhibitor cocktail (P1005, Beyotime). After incubation on ice for 20 minutes, the cells were centrifuged at 14,000 g at 4°C for 30 minutes. The supernatant was carefully collected and analyzed for ERα protein levels by immunoblotting.
as §1

IC50 [1]	IC50 [2]	Molecule	IC50 ([2]; Homo sapiens, MCF7, 144 h)	Degradation rate of ERα in T-47D cells (%) ([3]; 1nM)	Degradation rate of ERα in T-47D cells (%) ([3]; 10nM)	Degradation rate of ERα in MCF-7 cells (%) ([4]; 1nM)	Degradation rate of ERα in MCF-7 cells (%) ([4]; 10nM)	IC50 ([1]; Homo sapiens, T47D, 144 h)
		Cn1c(=O)n(C2CCC(=O)NC2=O)c2ccc3c(c21)OCC31CCN(C2CC3(C2)CN(c2ccc([C@@H]4c5ccc(O)cc5CC[C@@H]4c4ccccc4)cc2)C3)CC1 (stereo partly drawn) [ER-P-18, 3-(1'-(2-(4-((1R,2S)-6-hydroxy-2-phenyl-1,2,3,4-tetrahydronaphthalen-1-yl)phenyl)-2-azaspiro[3.3]heptan-6-yl)-1-methyl-2-oxo-1,2-dihydro-3H,7H-spiro[benzofuro[6,7-d]imidazole-6,4'-piperidin]-3-yl)piperidine-2,6-dione]	7240 nM	20%	23%	33%	18%	13.7 nM
		C[C@@H]1Cc2cc(O)ccc2C(c2c(F)cc(N3CCC4(CCC(N5CCC6(CC5)COc5c6ccc6c5n(C)c(=O)n6C5CCC(=O)NC5=O)CC4)CC3)cc2F)N1CC(F)F (stereo partly drawn) [ER-P-29, 3-(1'-(3-(4-((3R)-2-(2,2-difluoroethyl)-6-hydroxy-3-methyl-1,2,3,4-tetrahydroisoquinolin-1-yl)-3,5-difluorophenyl)-3-azaspiro[5.5]undecan-9-yl)-1-methyl-2-oxo-1,2-dihydro-3H,7H-spiro[benzofuro[6,7-d]imidazole-6,4'-piperidin]-3-yl)piperidine-2,6-dione]	140 nM	53%	41%	54%	25%	0.92 nM
		Cn1c(=O)n(C2CCC(=O)NC2=O)c2cc3c(cc21)C1(CCN(C2CCN(c4ccc([C@@H]5c6ccc(O)cc6CC[C@@H]5c5ccccc5)cc4)CC2)CC1)CO3 (stereo partly drawn) [ER-P-11, 3-(1'-(1-(4-((1R,2S)-6-hydroxy-2-phenyl-1,2,3,4-tetrahydronaphthalen-1-yl)phenyl)piperidin-4-yl)-1-methyl-2-oxo-1,2-dihydro-3H,6H-spiro[benzofuro[5,6-d]imidazole-7,4'-piperidin]-3-yl)piperidine-2,6-dione]	3540 nM	12%	12%	-18%	-33%	20.8 nM
1.17 nM	3730 nM	COc1cc2c(cc1C(=O)N[C@H]1CCC(=O)NC1=O)N(C)C[C@H]1CN(CC3CCC(OC4CCN(c5ccc([C@@H]6c7ccc(O)cc7CC[C@@H]6c6ccccc6)cc5)CC4)CC3)CCN21 (stereo partly drawn) [ER-P-49, (R)-N-((S)-2,6-dioxopiperidin-3-yl)-3-(((1S,4S)-4-((1-(4-((1R,2S)-6-hydroxy-2-phenyl-1,2,3,4-tetrahydronaphthalen-1-yl)phenyl)piperidin-4-yl)oxy)cyclohexyl)methyl)-9-methoxy-6-methyl-2,3,4,4a,5,6-hexahydro-1H-pyrazino[1,2-a]quinoxaline-8-carboxamide]		-11%	30%	-12%	23%	
1.47 nM	8430 nM	(S)-N-((S)-2,6-dioxopiperidin-3-yl)-3-(((1S,4R)-4-((1-(4-((1R,2S)-6-hydroxy-2-phenyl-1,2,3,4-tetrahydronaphthalen-1-yl)phenyl)piperidin-4-yl)oxy)cyclohexyl)methy l)-1,2,3,4,4a,5-hexahydrobenzo[b]pyrazi no[1,2-d][1,4]oxazine-8-carboxamide [ER-P-47]		-14%	25%	21%	26%	
		O=C1CCC(Nc2ccc3c(c2)OC[C@@H]2CN(C4CC5(CCN(c6ccc([C@@H]7c8ccc(O)cc8CC[C@@H]7c7ccccc7)cc6)CC5)C4)CCN32)C(=O)N1 (stereo partly drawn) [ER-P-35]	876 nM	21%	21%	6%	-3%	22.7 nM
		CN(C(=O)CN1CCC2(CC1)COc1c2ccc2c1n(C)c(=O)n2C1CCC(=O)NC1=O)C1CCC2(CC1)CN(c1ccc([C@@H]3c4ccc(O)cc4CC[C@@H]3c3ccccc3)cc1)C2 (stereo partly drawn) [ER-P-64, 2-(3-(2,6-dioxopiperidin-3-yl)-1-methyl-2-oxo-2,3-dihydro-1H,7H-spiro[benzofuro[6,7-d]imidazole-6,4'-piperidin]-1'-yl)-N-(2-(4-((1R,2S)-6-hydroxy-2-phenyl-1,2,3,4-tetrahydronaphthalen-1-yl)phenyl)-2-azaspiro[3.5]nonan-7-yl)-N-methylacetamide]	231 nM	56%	80%	46%	57%	1.5 nM

Molecule	IC50 [1]	IC50 [2]	IC50 ([2]; Homo sapiens, MCF7, 144 h)	Degradation rate of ERα in T-47D cells (%) ([3]; 1nM)	Degradation rate of ERα in T-47D cells (%) ([3]; 10nM)	Degradation rate of ERα in MCF-7 cells (%) ([4]; 1nM)	Degradation rate of ERα in MCF-7 cells (%) ([4]; 10nM)	IC50 ([1]; Homo sapiens, T47D, 144 h)
Cn1c(=O)n(C2CCC(=O)NC2=O)c2ccc3c(c21)OCC31CCN(C2CC3(CCN(c4ccc([C@@H]5c6ccc(O)cc6CC[C@@H]5c5ccccc5)cc4)CC3)C2)CC1 (stereo partly drawn) [ER-P-15, 3-(1'-(7-(4-((1R,2S)-6-hydroxy-2-phenyl-1,2,3,4-tetrahydronaphthalen-1-yl)phenyl)-7-azaspiro[3.5]nonan-2-yl)-1-methyl-2-oxo-1,2-dihydro-3H,7H-spiro[benzofuro[6,7-d]imidazole-6,4'-piperidin]-3-yl)piperidine-2,6-dione]	0.65 nM		2980 nM	44%	31%	22%	26%	
